Measurements published in US10662156B2, “Guanidine derivative and medical use thereof” (Toray Industries, Inc., priority 2016, dated 2020).

What was measured:
[1] = test system: imiquimod-induced psoriasis mouse models; assay: Suppressive effect on auricular hypertrophy in imiquimod-induced psoriasis mouse model; format: in vivo, BALB/c male mice; settings: for change in the thickness of the auricle (increase): post-induction days 4 to 7, post-induction day 8 vs before induction, vehicle group 198 μm; for change in the thickness of the auricle compared to the vehicle administration group (in words): P<0.05
Description: The guanidine derivative (I) or the pharmacologically acceptable salt thereof was evaluated for its exertion of a therapeutic effect on psoriasis, one type of autoimmune disease, in an in vivo experimental system using imiquimod-induced psoriasis mouse models in accordance with the method described in the literature (The Journal of Dermatological Science, 2014, Vol. 76, No. 2, p. 96-103). Specifically, the evaluation was conducted by verifying the suppressive effect of the compound on auricular hypertrophy by using, as an index, the thickness of the auricle increased with the progression of symptoms in imiquimod-induced psoriasis models.
Seven-week-old BALB/c male mice (Charles River Laboratories Japan, Inc.) were preliminarily bred and then used at the age of 8 weeks. To induce psoriasis-like symptoms, 5 mg/ear of Beselna Cream 5% was applied (imiquimod dose: 0.25 mg/body/day) to both the ears of each mouse once a day for 8 days from the date of initial administration of imiquimod (hereinafter, referred to as post-induction day 0) to post-induction day 7. A dosing vehicle was prepared by adding Tween 20 to a 0.5% (w/v) aqueous methylcellulose solution to attain a final concentration of 0.025% (v/v). A test compound was suspended in the dosing vehicle to prepare a drug solution. The drug solution was orally administered (dosing volume: 10 mL/kg) twice a day (a.m. and p.m.) for 4 days from post-induction days 4 to 7. The test compound used was the compound of Example 2, and groups given the compound of Example 2 were designated as Example 2 compound administration groups. A group given only the dosing vehicle in the same way as above was established as a vehicle administration group.
The thickness of the auricle before imiquimod administration (before induction) at the date of induction and the thickness of the auricle at post-induction day 8 were measured using a digital micrometer (Mitsutoyo Corp.), and the change therebetween (the thickness of the auricle at post-induction day 8—the thickness of the auricle before induction) was used as an index for drug efficacy evaluation. Statistical analysis was carried out using statistical analysis software EXSAS (ver. 7.6). As a result of studying homoscedasticity among the groups by the Bartlett's test, the variance was homogeneous. Therefore, the parametric Dunnett test (two-tailed) was carried out. As for the drug dependence of the drug efficacy of the compound of Example 2 on auricular hypertrophy, as a result of studying homoscedasticity between the vehicle group and each compound administration group by the Bartlett's test, the variance was homogeneous. Therefore, the Williams test (two-tailed) was carried out. P<0.05 was confirmed as significant difference.
The ordinate of the drawing depicts the change in the thickness of the auricle (μm), and the abscissa depicts each administration group. The term “Compound of Example 2” depicts the Example 2 compound administration groups.

[2] = target: recombinant GST fusion MALT1 (human MALT1) (Homo sapiens (Human), UniProt Q9UDY8); assay: Evaluation of inhibition of protease activity of MALT1 (cleavage of fluorescent peptide substrate Ac-LRSR-AMC); format: biochemical; settings: substrate Ac-LRSR-AMC 20 μmol/L, 30° C. for 80 minutes
In short: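 GST-tagged full-length human MALT1 from E. coli ([…]) was preincubated with compound 30 min at room temperature. Buffer: MES, 150 mM NaCl, 10% sucrose, 0.1% CHAPS, 10 mM DTT, 1 mol/L ammonium citrate. Ac-LRSR-AMC (20 μM final) was then cleaved 80 min at 30 °C; AMC fluorescence (Ex 380/Em 460) gain gave % inhibition versus no-enzyme and DMSO controls.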

Sequence of recombinant GST fusion MALT1 (human MALT1) (Q9UDY8 whole entry, the tested form may be a part): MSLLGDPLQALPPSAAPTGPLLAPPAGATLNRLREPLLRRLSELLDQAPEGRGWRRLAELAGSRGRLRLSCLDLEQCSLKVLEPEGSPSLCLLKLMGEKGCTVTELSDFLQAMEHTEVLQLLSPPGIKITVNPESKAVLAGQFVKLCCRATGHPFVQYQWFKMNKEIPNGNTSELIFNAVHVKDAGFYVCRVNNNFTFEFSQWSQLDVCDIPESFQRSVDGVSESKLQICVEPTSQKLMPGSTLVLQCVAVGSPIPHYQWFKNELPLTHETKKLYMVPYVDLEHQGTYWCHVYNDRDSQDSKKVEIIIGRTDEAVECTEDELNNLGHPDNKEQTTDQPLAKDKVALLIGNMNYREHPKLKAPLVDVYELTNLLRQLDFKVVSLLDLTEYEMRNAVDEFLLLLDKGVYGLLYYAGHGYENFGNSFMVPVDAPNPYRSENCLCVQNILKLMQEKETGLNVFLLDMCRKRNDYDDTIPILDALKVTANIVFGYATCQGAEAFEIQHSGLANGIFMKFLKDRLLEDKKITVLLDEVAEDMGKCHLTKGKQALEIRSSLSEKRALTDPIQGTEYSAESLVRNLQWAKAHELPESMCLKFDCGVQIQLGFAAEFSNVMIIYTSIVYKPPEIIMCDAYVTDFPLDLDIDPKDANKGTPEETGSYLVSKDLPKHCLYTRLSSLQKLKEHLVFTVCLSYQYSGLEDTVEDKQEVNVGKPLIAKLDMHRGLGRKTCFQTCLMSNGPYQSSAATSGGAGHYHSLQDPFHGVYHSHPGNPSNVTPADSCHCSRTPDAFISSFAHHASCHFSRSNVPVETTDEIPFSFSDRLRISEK

IC50 [2]: 270 nM
Compound: Cl.N/C(=N\S(=O)(=O)c1ccccc1)NCc1cnc(-c2ccc(Cl)cc2)c(-c2ccc(Cl)cc2)c1 [Compound of Example 2, N-(amino(((5,6-bis(4-chlorophenyl)pyridin-3-yl)methyl)amino)methylene)benzenesulfonamide Hydrochloride]
change in the thickness of the auricle (increase) ([1]; 7.5 mg/kg orally twice a day): 179 μm
change in the thickness of the auricle (increase) ([1]; 15 mg/kg orally twice a day): 131 μm
change in the thickness of the auricle compared to the vehicle administration group (in words) ([1]; 15 mg/kg orally twice a day): significantly decreased
change in the thickness of the auricle (increase) ([1]; 30 mg/kg orally twice a day): 118 μm
change in the thickness of the auricle compared to the vehicle administration group (in words) ([1]; 30 mg/kg orally twice a day): significantly decreased
